Source: US7683092B2, “Crystalline forms of antidiabetic compounds” (Merck Sharp & Dohme Corp., priority 2005, dated 2010)

Columns and labels:
[1] = Thermodynamic stability of crystal forms; details: among free acid crystal forms of Compound II
[2] = Hygroscopicity of the crystalline form; assay type: physicochemical; details: solid crystalline form

SMILES | thermodynamic stability of crystal form [1] | thermodynamic stability of crystal form ([1]; listed as Form C free acid) | hygroscopicity [2]
CC[C@@H](Oc1cccc(Cn2c(C)c(C(=O)c3ccc(Cl)cc3)c3ccc(OC(F)(F)F)cc32)c1)C(=O)O [Acid Form C, (2R)-2-{3-[[3-(4-chlorobenzoyl)-2-methyl-6-(trifluoromethoxy)-1H-indol-1-yl]methyl]phenoxy}butyric acid] | thermodynamically stable | most thermodynamically stable acid form | 
CC[C@@H](Oc1cccc(-n2c(C)c(C(=O)c3ccc(OC)cc3)c3ccc(OC(F)(F)F)cc32)c1)C(=O)O [crystalline dihydrate, (2R)-2-{3-[3-(4-methoxybenzoyl)-2-methyl-6-(trifluoromethoxy)-1H-indol-1-yl]phenoxy}butanoic acid] |  |  | non-hygroscopic
